In patent publication US20240208992A1, “MACROCYCLES AS CFTR MODULATORS” (Idorsia Pharmaceuticals Ltd, priority 2021, published 2024):

Biological target: human F508del-CFTR (Homo sapiens, UniProt P13569, DEL508-508)
Test: F508del-CFTR cell surface expression (corrector activity), DiscoveRx ß-galactosidase complementation chemiluminescence assay in recombinant U2OS cell line;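 further: U2OS cells co-expressing ProLink-tagged F508del-CFTR and a membrane-anchored enzyme acceptor, where more surface CFTR restores β-galactosidase activity measured by chemiluminescence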
Conditions: for EC50: EC50, F508del-CFTR cell surface expression; for Emax: U2OS
[1] = U2OS cells, 16h compound incubation, geomean of several measurements
[2] = in relation to the Emax of the corrector lumacaftor (=100%), U2OS cells, 16h compound incubation, arithmetic mean
[3] = U2OS cell line, 16h compound incubation, geomean values
[4] = in relation to the Emax of the corrector lumacaftor (=100%), U2OS cell line, 16h compound incubation, arithmetic mean values

Chain of human F508del-CFTR (P13569 with tags, fused parts or gaps DEL508-508): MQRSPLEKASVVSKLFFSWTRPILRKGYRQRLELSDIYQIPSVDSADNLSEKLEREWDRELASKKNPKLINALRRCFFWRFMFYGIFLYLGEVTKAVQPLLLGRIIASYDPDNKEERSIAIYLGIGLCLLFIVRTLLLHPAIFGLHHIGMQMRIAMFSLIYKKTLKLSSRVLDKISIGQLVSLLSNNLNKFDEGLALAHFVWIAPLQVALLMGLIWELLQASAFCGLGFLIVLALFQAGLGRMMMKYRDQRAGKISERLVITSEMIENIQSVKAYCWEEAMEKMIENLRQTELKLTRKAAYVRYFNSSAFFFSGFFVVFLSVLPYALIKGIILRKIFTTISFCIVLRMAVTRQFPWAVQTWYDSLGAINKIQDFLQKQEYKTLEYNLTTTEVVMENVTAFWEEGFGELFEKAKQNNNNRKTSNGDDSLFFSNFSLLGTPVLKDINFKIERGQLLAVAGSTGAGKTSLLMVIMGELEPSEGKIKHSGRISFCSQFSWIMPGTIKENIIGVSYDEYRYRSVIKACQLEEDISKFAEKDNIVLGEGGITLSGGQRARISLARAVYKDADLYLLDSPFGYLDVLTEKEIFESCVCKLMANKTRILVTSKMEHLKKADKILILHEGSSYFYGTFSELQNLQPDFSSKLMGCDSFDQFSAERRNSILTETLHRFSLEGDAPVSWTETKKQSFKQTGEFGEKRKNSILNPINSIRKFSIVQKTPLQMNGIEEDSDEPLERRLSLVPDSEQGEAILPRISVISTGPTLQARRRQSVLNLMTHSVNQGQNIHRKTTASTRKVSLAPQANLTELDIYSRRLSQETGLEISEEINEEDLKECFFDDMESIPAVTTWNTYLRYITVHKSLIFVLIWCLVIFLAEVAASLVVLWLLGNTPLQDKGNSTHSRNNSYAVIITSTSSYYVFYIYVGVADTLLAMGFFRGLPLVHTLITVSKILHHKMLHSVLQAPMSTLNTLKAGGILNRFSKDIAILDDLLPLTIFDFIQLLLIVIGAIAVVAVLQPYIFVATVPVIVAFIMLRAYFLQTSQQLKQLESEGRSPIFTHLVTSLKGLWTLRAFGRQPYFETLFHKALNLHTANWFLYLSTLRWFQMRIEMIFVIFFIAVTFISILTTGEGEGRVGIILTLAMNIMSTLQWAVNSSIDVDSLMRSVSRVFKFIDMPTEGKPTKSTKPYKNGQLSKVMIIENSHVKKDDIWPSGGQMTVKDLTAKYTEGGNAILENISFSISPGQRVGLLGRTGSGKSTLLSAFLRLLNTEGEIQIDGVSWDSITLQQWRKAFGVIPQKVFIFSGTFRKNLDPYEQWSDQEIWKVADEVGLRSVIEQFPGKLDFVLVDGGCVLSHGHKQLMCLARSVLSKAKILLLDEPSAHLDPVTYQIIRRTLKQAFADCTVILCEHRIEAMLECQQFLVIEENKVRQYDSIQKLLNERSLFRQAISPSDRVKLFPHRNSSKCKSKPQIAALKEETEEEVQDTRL

| SMILES | EC50 [1] | Emax [2] | EC50 [3] | Emax [4] | further results |
| --- | --- | --- | --- | --- | --- |
| COc1cc(CCNC(=O)[C@@H]2CC(=O)N(C)[C@@H](CC(C)C)C(=O)N(C)C3(CC3)C(=O)N[C@H](Cc3ccccc3)COc3ccc4cnc(C)cc4c3C(=O)N2)on1 [Example 901, (3′S,7′S,13′R)-13′-benzyl-7′-isobutyl-N-(2-(3-methoxyisoxazol-5-yl)ethyl)-6′,9′,20′-trimethyl-1′,5′,8′,11′-tetraoxo-2′,3′,4′,5′,6′,7′,8′,9′,11′,12′,13′,14′-dodecahydro-1′H-spiro[cyclopropane-1,10′-[1]oxa[4,7,10,14]tetraazacycloheptadecino[16,17-f]isoquinoline]-3′-carboxamide] | 736 nM | 390% | – | – | – |
| CC(C)C[C@H]1C(=O)N2CCOC[C@@H]2C(=O)N[C@H](Cc2ccccc2)COc2ccc3ccccc3c2C(=O)N[C@H](C(=O)NCCc2ccc(-n3nccn3)cc2)CC(=O)N1C [Example 387, (4aR,7R,18S,22S)-N-(4-(2H-1,2,3-triazol-2-yl)phenethyl)-7-benzyl-22-isobutyl-21-methyl-5,16,20,23-tetraoxo-1,2,4,4a,5,6,7,8,16,17,18,19,20,21,22,23-hexadecahydronaphtho[1,2-p][1,4]oxazino[3,4-f][1]oxa[4,7,10,14]tetraazacycloheptadecine-18-carboxamide] | – | – | 342 nM | 215% | – |
| COc1nc(C)cc2c1C(=O)N[C@H](C(=O)NCCn1nnc(C3CC3)n1)CC(=O)N(C)[C@@H](CC(C)C)C(=O)N(C)[C@H](CC(F)(F)F)C(=O)N[C@H](Cc1ccccc1)CO2 [Example 806, (3R,6R,9S,13S)-3-benzyl-N-(2-(5-cyclopropyl-2H-tetrazol-2-yl)ethyl)-9-isobutyl-16-methoxy-7,10,18-trimethyl-5,8,11,15-tetraoxo-6-(2,2,2-trifluoroethyl)-2,3,4,5,6,7,8,9,10,11,12,13,14,15-tetradecahydropyrido[3,4-p][1]oxa[4,7,10,14]tetraazacycloheptadecine-13-carboxamide] | 233 nM | 394% | – | – | – |
| Cc1cc2c3c(ccc2cn1)OC[C@@H](Cc1ccccc1)NC(=O)C1(CC(F)(F)C1)N(C)C(=O)[C@H](CC(C)C)N(C)C(=O)C[C@@H](C(=O)NCCc1nc(C2CC2)no1)NC3=O [Example 952, (3′S,7′S,13′R)-13′-benzyl-N-(2-(3-cyclopropyl-1,2,4-oxadiazol-5-yl)ethyl)-3,3-difluoro-7′-isobutyl-6′,9′,20′-trimethyl-1′,5′,8′,11′-tetraoxo-2′,3′,4′,5′,6′,7′,8′,9′,11′,12′,13′,14′-dodecahydro-1′H-spiro[cyclobutane-1,10′-[1]oxa[4,7,10,14]tetraazacycloheptadecino[16,17-f]isoquinoline]-3′-carboxamide] | 339 nM | 438% | – | – | – |
| COc1cccc(CCNC(=O)[C@@H]2CC(=O)N(C)[C@@H](CC(C)C)C(=O)N3CCN(CC(C)C)C[C@H]3C(=O)N[C@H](Cc3ccccc3)COc3cnc4ccccc4c3C(=O)N2)c1 [Example 373, (9S,13S,19aS,22R)-22-benzyl-13,18-diisobutyl-N-(3-methoxyphenethyl)-12-methyl-7,11,14,20-tetraoxo-7,8,9,10,11,12,13,14,17,18,19,19a,20,21,22,23-hexadecahydro-16H-pyrazino[2′,11:6,7][1]oxa[4,7,10,14]tetraazacycloheptadecino[17,16-c]quinoline-9-carboxamide] | – | – | 200 nM | 149% | – |
| Cc1cc(CCNC(=O)[C@@H]2CC(=O)N(C)[C@@H](CC(C)C)C(=O)N3CCN(C(C)C)C[C@@H]3C(=O)N[C@H](Cc3ccccc3)COc3ccc4ccccc4c3C(=O)N2)on1 [Example 623, (4aR,7R,18S,22S)-7-benzyl-22-isobutyl-3-isopropyl-21-methyl-N-(2-(3-methylisoxazol-5-yl)ethyl)-5,16,20,23-tetraoxo-2,3,4,4a,5,6,7,8,16,17,18,19,20,21,22,23-hexadecahydro-1H-naphtho[1,2-p]pyrazino[2,1-f][1]oxa[4,7,10,14]tetraazacycloheptadecine-18-carboxamide] | – | – | – | – | EC50 (U2OS cells, 16h compound incubation, geomean values): 248 nM; Emax (in relation to Emax of corrector lumacaftor (=100%), arithmetic mean values): 349% |
